Assay results: publication PMC4394464, “Identification and Pharmacokinetics of Multiple Potential Bioactive Constituents after Oral Administration of Radix Astragali on Cyclophosphamide-Induced Immunosuppression in Balb/c Mice” (International Journal of Molecular Sciences, 2015)

test: Profiling of absorbed constituents and metabolites in mice plasma after oral administration of RA (UFLC-DAD-Q-TOF-MS/MS); conditions: oral RA extract 6 g/kg BW; cyclophosphamide-induced immunosuppressed Balb/c mice; plasma sampled 0.25-36 h; '-' = not detected
Procedure: The peaks that appeared at the same position in the total ion chromatograms of both the dosed mice bio-samples and the RA extract, but not in the chromatograms of the controlled mice bio-samples, were regarded as absorbed constituents [22].
Following randomization into study groups, mice (6/group/male) received intraperitoneal injection once daily of cyclophosphamide (i.p. 80 mg/kg BW) for 6 days. Additionally, the control group was injected intraperitoneally with sterile physiological saline. […] Plasma was harvested by centrifugation at 3000× g for 10 min and then kept frozen at −70 °C until analysis.
After being vortexed for 1 min, the sample was centrifuged at 13,000× g at 4 °C for 30 min. The supernate was transferred into a fresh tube and evaporated with nitrogen. Then, the residue was dissolved in a 60-μL mobile phase with vortex mixing for 3 min and centrifuged at 13,000× g for 30 min. Finally, 10 μL of the supernatant were injected into the UFLC/DAD/Q-TOF-MS/MS system.
The multiple constituents in RA and the absorbed compounds in mice plasma were identified by the ultra-fast liquid chromatography/diode-array detector/quadrupole time-of-flight tandem mass spectrometry (UFLC/DAD/Q-TOF-MS/MS) method.

| SMILES | Source: Dosed Plasma (time points at which the compound was detected) |
| --- | --- |
| NC(=O)C[C@H](N)C(=O)O (single isomer, unassigned) [Peak 2, Asparagine] | 1 to 36 h |
| CC(C)C[C@H](N)C(=O)O (single isomer, unassigned) [Peak 9, Leucine] | 0.25 to 36 h |
| Nc1ncnc2c1ncn2[C@@H]1O[C@H](CO)[C@@H](O)[C@H]1O (single isomer, unassigned) [Peak 10, Adenine nucleoside] | 0.25 to 36 h |
| N[C@@H](Cc1ccccc1)C(=O)O (single isomer, unassigned) [Peak 11, Phenylalanine] | 0.25 to 36 h |
| COc1cc(O[C@H]2O[C@H](CO)[C@H](O)[C@H](O)[C@H]2O[C@H]2OC[C@@](O)(CO)[C@H]2O)ccc1O (single isomer, unassigned) [Peak 13, Markhamioside F] | 0.25 to 8 h |
| N[C@@H](Cc1c[nH]c2ccccc12)C(=O)O (single isomer, unassigned) [Peak 14, Tryptophan] | 0.25 to 36 h |
| N[C@@H](Cc1ccc(O)cc1)C(=O)O (single isomer, unassigned) [Peak 16, Tyrosine] | 0.25 to 36 h |
| COc1cc(O)c2c(=O)c(O[C@@H]3O[C@H](CO)[C@@H](O)[C@H](O)[C@H]3O)c(-c3ccc(O[C@@H]4O[C@H](CO)[C@@H](O)[C@H](O)[C@H]4O)cc3)oc2c1 (single isomer, unassigned) [Peak 18, Rhamnocitrin 3,4'-di-O-glucoside] | 0.25 to 6 h |
| COc1cc(/C=C/CO)cc(OC)c1O[C@@H]1O[C@H](CO)[C@@H](O)[C@H](O)[C@H]1O (single isomer, unassigned) [Peak 24, Syringin] | 0.25 to 36 h |
| COc1ccc(-c2coc3cc(O[C@@H]4O[C@H](CO)[C@@H](O)[C@H](O)[C@H]4O)cc(O)c3c2=O)cc1O (single isomer, unassigned) [Peak 26, Pratensein-7-O-glucoside] | 0.25 to 8 h |
| O=c1cc(-c2ccc(O)cc2)oc2cc(O[C@@H]3O[C@H](CO)[C@@H](O)[C@H](O)[C@H]3O)cc(O)c12 (single isomer, unassigned) [Peak 30, Cosmosiin] | 0.25 to 36 h |
| COc1ccc2c(c1OC)OC1c3ccc(O[C@@H]4O[C@H](CO)[C@@H](O)[C@H](O)[C@H]4O)cc3OCC21 (single isomer, unassigned) [Peak 34, 9,10-dimethoxypterocarpan-3-O-glucoside] | 0.25 to 12 h |
| CCCCC=CC=CC(=O)O (single isomer, unassigned) [Peak 35, 2,4-Nonadienic acid] | 0.25 to 36 h |
| COc1ccc(-c2coc3cc(O[C@@H]4O[C@H](COC(C)=O)[C@@H](O)[C@H](O)[C@H]4O)ccc3c2=O)cc1 (single isomer, unassigned) [Peak 38, 6'-O-acetyl ononin] | 0.25 to 8 h |
| CC(CCC(O)C(C)(C)O)C1C(O)CC2(C)C3CC(OC4OC(CO)C(O)C(O)C4O)C4C(C)(C)C(OC5OCC(O)C(O)C5O)CCC45CC35CCC12C (single isomer, unassigned) [Peak 43, Cyclocanthoside E] | 3 h |
| C[C@@H]1O[C@@H](O[C@H]2[C@H](O[C@H]3[C@H](O[C@H]4CC[C@@]5(C)[C@@H](CC[C@]6(C)[C@@H]5CC=C5[C@@H]7CC(C)(C)C[C@@H](O)[C@]7(C)CC[C@]56C)[C@@]4(C)CO)O[C@H](C(=O)O)[C@@H](O)[C@@H]3O)O[C@H](CO)[C@H](O)[C@@H]2O)[C@H](O)[C@H](O)[C@H]1O (single isomer, unassigned) [Peak 47, Soyasaponin I] | 0.25 to 24 h |
